Measurements taken from paper PMC6980506, “Comparative pharmacokinetics and pharmacodynamics of the advanced Retinol-Binding Protein 4 antagonist in dog and cynomolgus monkey” (PLoS ONE, 2020).

Legend:
[1] = Metabolic stability in dog liver microsomes; type: in vitro ADME; conditions: male, beagle, pH 7.4, 1 mg/mL, read-out: Microsomal Stability (% Remaining at 30 min)
Method: All measurements were done in duplicate. Pooled mixed gender human donor microsomes, male beagle dog microsomes and male cynomolgus monkey were obtained from BioIVT (Baltimore, MD). […] A mixture containing 50 mM potassium phosphate buffer pH 7.4 and 1 mg/mL liver microsomes was pre-warmed for 10 min at 37°C in a shaking water bath, followed by the addition of test compound. Final DMSO concentration in the reaction mix was 0.1%. […] The final volume of the reaction mixture was 800 μL, containing 1 mg/mL liver microsomes, and 1 μM test compound. Aliquots (100 μL) of reaction mixtures were removed from the incubation plate at pre-defined timepoints and mixed with 150 μL of ice-cold acetonitrile, incubated on ice for 15 min, and samples were centrifuged (3,600 rpm, 10 min, 4°C) to precipitate protein. The supernatants were diluted 1:1 (v/v) with water containing the internal standard and subjected to the LC/MS analysis.

[2] = Metabolic clearance in dog hepatocytes; type: in vitro ADME; conditions: male, beagle, cryopreserved hepatocytes, read-out: Hepatocyte CLint (intrinsic clearance)
Method: (§1) All measurements were done in duplicate. Testosterone and 7-hydroxycoumarin were used as positive controls. Pooled cryopreserved human hepatocytes, cryopreserved male beagle dog hepatocytes, and cryopreserved male cynomolgus monkey hepatocytes were obtained from BioIVT (Baltimore, MD). Compound at 1 μM was incubated with 1 x 10^6 cells. Final DMSO concentration in the reaction mix was 0.1%. Aliquots (100 μL) of reaction mixtures were removed from the incubation plate at different timepoints and mixed with 150 μL of ice-cold acetonitrile. After incubation on ice for 15 min, the samples were centrifuged (3,600 rpm, 10 min, 4°C) to precipitate protein. The supernatants were diluted 1:1 (v/v) with water containing internal standards and subjected to the LC/MS analysis. Hepatic clearance was calculated using the well-stirred liver model

[3] = Metabolic clearance in cynomolgus monkey hepatocytes; type: in vitro ADME; conditions: male, cryopreserved hepatocytes, Cyno hepatocytes, read-out: Hepatocyte CLint (intrinsic clearance)
Method: as §1

[4] = tested on: plasma RBP4; assay: Plasma RBP4 lowering (ELISA) in cynomolgus monkey; type: in vivo
Method: (§2) Pharmacokinetic studies were conducted in male beagle dogs and male cynomolgus monkeys at SRI International, Menlo Park, CA. General procedures for animal care and housing were in accordance with the National Research Council (NRC) Guide for the Care and Use of Laboratory Animals (1996) and the Animal Welfare Standards incorporated in 9 CFR Part 3, 1991 and complied with guidelines set forth by the ARVO Animal Statement for the Use of Animals in Ophthalmic and Vision Research. During the course of the PK experiments, cynomolgus monkeys were individually housed in stainless steel primary enclosures in an AAALAC-accredited facility. Animals were fed a commercial monkey chow, and supplemental food was provided (fresh fruits, vegetables, seeds, and nuts). Reverse osmosis-purified drinking water was available at all times. Cynomolgus monkeys were maintained on a 12:12 hour light:dark cycle at the 64–84°F temperature and 30–70% humidity. Monkeys had access to enrichment opportunities (grooming devices, foraging devices, activity panels and mirrors) and were provided auditory stimuli and human interaction enrichment throughout the study. Blood samples were collected by venipuncture of a peripheral vein. Animals were acclimated to the squeeze back mechanism in their home cage by repeated, short periods of restraint during general husbandry procedures for at least 2 weeks prior to dosing. Animal were not removed from their cages for collection, and no anesthesia/analgesic agents were used for blood collection. […] For PK experiments, beagle dogs were individually housed in enclosed run (≥ 4 ft x 6 ft). Dogs were exposed to their daily ration of food, Harlan Teklad 2025C Certified Global 25% Protein Dog Diet. Water was provided from the public water supply (municipal tap water) ad libitum. Dogs were maintained on a 12:12 hour light:dark cycle at the 72–73°F temperature and 40–71% humidity. Every effort was made to minimize, if not eliminate, pain and suffering in all animals in this study. No restraining devices were used in blood collecting procedures. Dogs were gentle hand-held to restrain by trained technicians with the dogs foreleg extended for sample collection of blood from cephalic vein. Animals were awake during blood sample collection with no anesthesia/analgesic agents used, and positive reinforcement by the technician was provided following collection. […] All dogs were released back to the colony after the study was completed. Male beagle dogs and male cynomolgus monkey received a single i.v. dose of a test compound at 0.5 mg kg^−1 (dog) and 1 mg kg^−1 (monkey) or a single p.o. dose of a test compound of at 2 mg kg^−1 (dog) and 5 mg kg^−1 (monkey). The number of animals that was used in PK experiments is 3 per study group. Intravenous administration vehicle was 3% DMA/45% PEG300/12% ethanol/40% sterile water; p.o. vehicle was 2% Tween 80 in 0.9% saline. Blood was collected from dogs and monkeys at pre-dose and at 5, 15 and 30 min, and 1, 2, 4, 6, 8, 12, 24, 36 and 48 h post-dose in the i.v. arms and at 15 and 30 min, and 1, 2, 4, 6, 8, 12, 24, 36 and 48 h post-dose in the p.o. arm. […] Following protein extraction with acetonitrile, compound concentrations in plasma were measured by LC-MS/MS. The plasma drug level data were analyzed using WinNonlin software package; Model 201 (for i.v. bolus administration);was used for the analysis of i.v. data, and Model 200 (for extravascular administration) was used for the analysis of the p.o. data. […]

[5] = tested on: plasma RBP4; assay: Plasma RBP4 lowering (ELISA) in beagle dog; type: in vivo
Method: as §2

[6] = tested on: PXR; design: method as in PMID 26181715; conditions: cited from earlier work
[7] = tested on: hERG channel; design: method as in PMID 26181715; conditions: cited from earlier work
[8] = tested on: standard screening panel of fifty-five GPCRs, enzymes, ion channels, and transporters; design: method as in PMID 26181715; conditions: cited from earlier work

remaining at 0.5 h, 1 μM [1]: 93%
hepatocyte CLint at 1 μM [2]: < 0.7 µL/min/1e6 cells
hepatocyte CLint at 1 μM [3]: 0.7 µL/min/1e6 cells
SMILES: Cc1cc(C(=O)O)nc(N2C[C@H]3C[C@@H](c4ccccc4C(F)(F)F)C[C@H]3C2)n1 [BPN-14136]
plasma RBP4 reduction ([4]; single 1 mg kg^−1 i.v. dose): 84%
RBP4 reduction ([4]; single 5 mg kg^−1 oral dose, 24 h): 97%
RBP4 reduction ([4]; single 5 mg kg^−1 oral dose, 36 h): 94%
RBP4 reduction ([4]; single 5 mg kg^−1 oral dose, 48 h): 91%
maximum decrease in plasma RBP4 ([4]; single 5 mg kg^−1 oral dose, at 12 hours after dosing): 99%
plasma RBP4 lowering ([5]; single 0.5 mg kg^−1 i.v. dose): 50%
reduction of RBP4 ([5]; single 2 mg kg^−1 oral dose, 24 h): 53%
reduction of RBP4 ([5]; single 2 mg kg^−1 oral dose, 36 h): 42%
reduction of RBP4 ([5]; single 2 mg kg^−1 oral dose, 48 h): 39%
maximal plasma RBP4 reduction ([5]; single 2 mg kg^−1 oral dose, at 8 hours post-dosing): 60%
PXR activation [6]: no PXR activation
off-target activity at the hERG channel [7]: no significant off-target activity
off-target activity within standard screening panel [8]: no significant off-target activity
